Laboratory results from ChEMBL document CHEMBL5614374, “Novel carbazole-oxadiazole derivatives as anti-α-glucosidase and anti-α-amylase agents: Design, synthesis, molecular docking, and biological evaluation” (Eur J Med Chem, 2024).
Active and inactive are the calls of the source. The calls are words filed in the database; no cut-off is given here.

Legend:
Alpha-glucosidase [1] = target: T1, Alpha-glucosidase (Saccharomyces cerevisiae S288c, UniProt P53341+P38158+P07265); experiment: Inhibition of Saccharomyces cerevisiae alpha-glucosidase using p-nitrophenyl-alpha-D-glucopyranoside as substrate preincubated for 0.25 hrs followed by substrate addition and measured after 0.5 hrs by spectrophotometric analysis; format: protein assay
Alpha-amylase [2] = target: T2, Alpha-amylase (Sus scrofa domesticus, UniProt Q7M328); experiment: Inhibition of hog pancreatic alpha-amylase using soluble starch as substrate preincubated for 10 mins followed by substrate addition and measured after 15 mins by absorbance based analysis
T2 sequence (Q7M328 whole entry): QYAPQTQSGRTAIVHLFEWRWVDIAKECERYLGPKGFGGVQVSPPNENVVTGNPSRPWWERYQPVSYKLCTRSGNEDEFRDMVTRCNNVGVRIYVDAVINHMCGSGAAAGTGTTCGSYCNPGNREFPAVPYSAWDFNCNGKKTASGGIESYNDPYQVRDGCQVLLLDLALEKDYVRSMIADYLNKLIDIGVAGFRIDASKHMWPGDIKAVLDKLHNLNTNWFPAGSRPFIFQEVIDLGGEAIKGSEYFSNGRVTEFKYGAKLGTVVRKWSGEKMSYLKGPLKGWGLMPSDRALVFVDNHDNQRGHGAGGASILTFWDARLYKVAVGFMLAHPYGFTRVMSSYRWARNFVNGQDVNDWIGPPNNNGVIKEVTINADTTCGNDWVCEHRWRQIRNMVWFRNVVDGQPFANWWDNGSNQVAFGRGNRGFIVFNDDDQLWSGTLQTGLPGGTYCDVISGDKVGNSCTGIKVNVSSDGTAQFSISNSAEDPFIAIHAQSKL

[3] = target: T3, Alpha-glucosidase (Saccharomyces cerevisiae S288c) (UniProt P53341+P38158+P07265); experiment: Mixed-type inhibition of Saccharomyces cerevisiae alpha-glucosidase using p-nitrophenyl-alpha-D-glucopyranoside as substrate assessed as decrease in Km and Vmax upto 20 uM incubated for 7 mins by spectrophotometer based Lineweaver-Burk plot analysis; format: protein assay
Alpha-glucosidase [4] = target: T1, Alpha-glucosidase; experiment: Inhibition of Saccharomyces cerevisiae alpha-glucosidase using p-nitrophenyl-alpha-D-glucopyranoside as substrate assessed as inhibition constant of enzyme-substrate complex incubated for 7 mins by spectrophotometer based Lineweaver-Burk plot analysis; format: protein assay
[5] = target: T3, Alpha-glucosidase (Saccharomyces cerevisiae S288c); experiment: Inhibition of alpha-glucosidase (unknown origin) assessed as effect on secondary structure by measuring reduction in alpha-helix content at 5 uM by CD spectra (reference value: 32.1 %); format: protein assay; set-up: scale not given: the % may be the effect or the level left; details: Homo sapiens
[6] = target: T3, Alpha-glucosidase (Saccharomyces cerevisiae S288c); experiment: Inhibition of alpha-glucosidase (unknown origin) assessed as effect on secondary structure by measuring reduction in alpha-helix content at 10 uM by CD spectra (reference value: 32.1 %); format: protein assay; set-up: scale not given: the % may be the effect or the level left; details: Homo sapiens
[7] = target: T3, Alpha-glucosidase (Saccharomyces cerevisiae S288c); experiment: Inhibition of alpha-glucosidase (unknown origin) assessed as effect on secondary structure by measuring reduction in alpha-helix content at 20 uM by CD spectra (reference value: 32.1 %); format: protein assay; set-up: scale not given: the % may be the effect or the level left; details: Homo sapiens
[8] = target: T3, Alpha-glucosidase (Saccharomyces cerevisiae S288c); experiment: Inhibition of alpha-glucosidase (unknown origin) assessed as effect on secondary structure by measuring reduction in alpha-helix content at 30 uM by CD spectra (reference value: 32.1 %); format: protein assay; set-up: scale not given: the % may be the effect or the level left; details: Homo sapiens
[9] = target: T3, Alpha-glucosidase (Saccharomyces cerevisiae S288c); experiment: Inhibition of alpha-glucosidase (unknown origin) assessed as effect on secondary structure by measuring beta-sheet content at 5 uM by CD spectra (reference value: 18.1 %); format: protein assay; set-up: scale not given: the % may be the effect or the level left
[10] = target: T3, Alpha-glucosidase (Saccharomyces cerevisiae S288c); experiment: Inhibition of alpha-glucosidase (unknown origin) assessed as effect on secondary structure by measuring beta-sheet content at 10 uM by CD spectra (reference value: 18.1 %); format: protein assay; set-up: scale not given: the % may be the effect or the level left
[11] = target: T3, Alpha-glucosidase (Saccharomyces cerevisiae S288c); experiment: Inhibition of alpha-glucosidase (unknown origin) assessed as effect on secondary structure by measuring beta-sheet content at 20 uM by CD spectra (reference value: 18.1 %); format: protein assay; set-up: scale not given: the % may be the effect or the level left
[12] = target: T3, Alpha-glucosidase (Saccharomyces cerevisiae S288c); experiment: Inhibition of alpha-glucosidase (unknown origin) assessed as effect on secondary structure by measuring beta-sheet content at 30 uM by CD spectra (reference value: 18.1 %); format: protein assay; set-up: scale not given: the % may be the effect or the level left
[13] = target: T3, Alpha-glucosidase (Saccharomyces cerevisiae S288c); experiment: Inhibition of alpha-glucosidase (unknown origin) assessed as effect on secondary structure by measuring beta-turn content at 5 uM by CD spectra (reference value: 17.1 %); format: protein assay; set-up: scale not given: the % may be the effect or the level left; details: Homo sapiens
[14] = target: T3, Alpha-glucosidase (Saccharomyces cerevisiae S288c); experiment: Inhibition of alpha-glucosidase (unknown origin) assessed as effect on secondary structure by measuring beta-turn content at 10 uM by CD spectra (reference value: 17.1 %); format: protein assay; set-up: scale not given: the % may be the effect or the level left
[15] = target: T3, Alpha-glucosidase (Saccharomyces cerevisiae S288c); experiment: Inhibition of alpha-glucosidase (unknown origin) assessed as effect on secondary structure by measuring beta-turn content at 20 uM by CD spectra (reference value: 17.1 %); format: protein assay; set-up: scale not given: the % may be the effect or the level left
[16] = target: T3, Alpha-glucosidase (Saccharomyces cerevisiae S288c); experiment: Inhibition of alpha-glucosidase (unknown origin) assessed as effect on secondary structure by measuring beta-turn content at 30 uM by CD spectra (reference value: 17.1 %); format: protein assay; set-up: scale not given: the % may be the effect or the level left
[17] = target: T3, Alpha-glucosidase (Saccharomyces cerevisiae S288c); experiment: Inhibition of alpha-glucosidase (unknown origin) assessed as effect on secondary structure by measuring random coil content at 5 uM by CD spectra (reference value: 33.1 %); format: protein assay; set-up: scale not given: the % may be the effect or the level left; details: Homo sapiens
[18] = target: T3, Alpha-glucosidase (Saccharomyces cerevisiae S288c); experiment: Inhibition of alpha-glucosidase (unknown origin) assessed as effect on secondary structure by measuring random coil content at 10 uM by CD spectra (reference value: 33.1 %); format: protein assay; set-up: scale not given: the % may be the effect or the level left; details: Homo sapiens
[19] = target: T3, Alpha-glucosidase (Saccharomyces cerevisiae S288c); experiment: Inhibition of alpha-glucosidase (unknown origin) assessed as effect on secondary structure by measuring random coil content at 20 uM by CD spectra (reference value: 33.1 %); format: protein assay; set-up: scale not given: the % may be the effect or the level left
[20] = target: T3, Alpha-glucosidase (Saccharomyces cerevisiae S288c); experiment: Inhibition of alpha-glucosidase (unknown origin) assessed as effect on secondary structure by measuring random coil content at 30 uM by CD spectra (reference value: 33.1 %); format: protein assay; set-up: scale not given: the % may be the effect or the level left; details: Homo sapiens
[21] = target: T3, Alpha-glucosidase (Saccharomyces cerevisiae S288c); experiment: Inhibition of alpha-glucosidase (unknown origin) assessed as increase in enzyme particle size at 1 uM incubated for 15 mins by AFM imaging analysis; format: protein assay
[22] = target: T3, Alpha-glucosidase (Saccharomyces cerevisiae S288c); experiment: Inhibition of alpha-glucosidase (unknown origin) assessed as increase in enzyme particle thickness at 1 uM incubated for 15 mins by AFM imaging analysis; format: protein assay
[23] = Cytotoxicity against HEK293 cells assessed as cell viability at 60 uM incubated for 1 day by MTT assay relative to control; format: toxicity, cell-based; details: human, read-out: Activity
[24] = Cytotoxicity against HEK293 cells incubated for 1 day by MTT assay; format: toxicity, cell-based; details: human
Mus musculus [25] = experiment: Reduction in blood glucose concentration in male Kunming mouse at 20 mg/kg, IG preadministered for 40 mins followed by saccharose addition and measured after 30 mins by sucrose loading test; format: functional, organism-based; details: time 70.0 min
Mus musculus [26] = experiment: Reduction in blood glucose concentration in male Kunming mouse assessed as decrease in AUC at 20 mg/kg, IG preadministered for 40 mins followed by saccharose addition and measured after 150 mins by sucrose loading test relative to control; format: functional; set-up: scale not given: the % may be the effect or the level left; details: time 190 min, 3.167 h
Alpha-glucosidase [27] = target: T1, Alpha-glucosidase; experiment: Inhibition of Saccharomyces cerevisiae alpha-glucosidase using p-nitrophenyl-alpha-D-glucopyranoside as substrate assessed as inhibition constant of free alpha-glucosidase incubated for 7 mins by spectrophotometer based Lineweaver-Burk plot analysis; format: protein assay
[28] = target: T4, Alpha-amylase (Sus scrofa domesticus) (UniProt Q7M328); experiment: Mixed-type inhibition of hog pancreatic alpha-amylase using soluble starch as substrate upto 35 uM preincubated for 10 mins followed by substrate addition and measured after 15 mins by Lineweaver-Burk plot analysis; details: time 25.0 min
T4 sequence (whole entry): T2 sequence (Q7M328 whole entry)

Alpha-amylase [29] = target: T2, Alpha-amylase; experiment: Inhibition of hog pancreatic alpha-amylase using soluble starch as substrate assessed as inhibition constant of free alpha-amylase preincubated for 10 mins followed by substrate addition and measured after 15 mins by Lineweaver-Burk plot analysis
Alpha-amylase [30] = target: T2, Alpha-amylase; experiment: Inhibition of hog pancreatic alpha-amylase using soluble starch as substrate assessed as inhibition constant of enzyme-substrate complex preincubated for 10 mins followed by substrate addition and measured after 15 mins by Lineweaver-Burk plot analysis
[31] = target: Alpha amylase (Homo sapiens) (UniProt P0DUB6); experiment: Inhibition of alpha-amylase (unknown origin) assessed as increase in enzyme particle size at 50 uM incubated for 30 mins by AFM imaging analysis; format: protein assay
Sequence of Alpha amylase (Homo sapiens) (P0DUB6 whole entry, looked up): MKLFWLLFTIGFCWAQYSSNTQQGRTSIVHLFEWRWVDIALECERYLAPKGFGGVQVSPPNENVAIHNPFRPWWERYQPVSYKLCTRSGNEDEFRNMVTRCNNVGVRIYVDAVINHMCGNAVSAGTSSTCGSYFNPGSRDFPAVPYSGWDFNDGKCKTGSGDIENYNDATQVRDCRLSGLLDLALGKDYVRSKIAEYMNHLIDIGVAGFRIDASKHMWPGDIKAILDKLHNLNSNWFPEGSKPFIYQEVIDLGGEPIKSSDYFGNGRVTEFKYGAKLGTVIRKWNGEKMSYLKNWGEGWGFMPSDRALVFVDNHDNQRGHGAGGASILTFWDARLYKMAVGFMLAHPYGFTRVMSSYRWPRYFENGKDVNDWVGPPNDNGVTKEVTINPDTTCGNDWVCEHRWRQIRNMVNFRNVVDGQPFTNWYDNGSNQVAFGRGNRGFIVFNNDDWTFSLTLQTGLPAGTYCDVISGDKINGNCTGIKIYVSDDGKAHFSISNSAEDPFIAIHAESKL

[32] = target: Alpha amylase (Homo sapiens) (UniProt P0DUB6); experiment: Inhibition of alpha-amylase (unknown origin) assessed as increase in enzyme particle thickness at 50 uM incubated for 30 mins by AFM imaging analysis; format: protein assay

## CCOc1ccc(NC(=O)CSc2nnc(CCn3c4ccccc4c4ccccc43)o2)cc1
Alpha-glucosidase [1]
  IC50: 21.39 µM
Alpha-amylase [2]
  IC50: 61.5 µM
[3]
  inhibition: Active
Alpha-glucosidase [4]
  Ki: 13.19 µM
[5]
  Activity: 28.9%
[6]
  Activity: 28.5%
[7]
  Activity: 25.7%
[8]
  Activity: 25.1%
[9]
  Activity: 20%
[10]
  Activity: 20.3%
[11]
  Activity: 22.4%
[12]
  Activity: 22.9%
[13]
  Activity: 17.7%
[14]
  Activity: 17.8%
[15]
  Activity: 18.4%
[16]
  Activity: 18.5%
[17]
  Activity: 35.3%
[18]
  Activity: 36.1%
[19]
  Activity: 38.1%
[20]
  Activity: 38.8%
[21]
  inhibition: Active
[22]
  inhibition: Active
[23]
  viability at 24 h, 60 µM: 96.1%
[24]
  IC50 at 1 day: 193 µM
Mus musculus [25]
  Activity: Active
Mus musculus [26]
  Activity: 11.74%

## O=C(CSc1nnc(CCn2c3ccccc3c3ccccc32)o1)Nc1ccc(Cl)cc1
Alpha-glucosidase [1]
  IC50: 22.07 µM
Alpha-amylase [2]
  IC50: 83.2 µM

## COc1ccc(NC(=O)CSc2nnc(CCn3c4ccccc4c4ccccc43)o2)c([N+](=O)[O-])c1
Alpha-glucosidase [1]
  IC50: 85.95 µM
Alpha-amylase [2]
  IC50: 64.6 µM

## Cc1ccc(NC(=O)CSc2nnc(CCn3c4ccccc4c4ccccc43)o2)c([N+](=O)[O-])c1
Alpha-glucosidase [1]
  IC50: 67.35 µM
Alpha-amylase [2]
  IC50: 54.6 µM

## Cc1ccc(NC(=O)CSc2nnc(CCn3c4ccccc4c4ccccc43)o2)c(C)c1
Alpha-glucosidase [1]
  IC50: > 300 µM
Alpha-amylase [2]
  IC50: 120 µM

## O=C(CSc1nnc(CCn2c3ccccc3c3ccccc32)o1)Nc1ccc([N+](=O)[O-])cc1
Alpha-glucosidase [1]
  IC50: 22.22 µM
Alpha-amylase [2]
  IC50: 86.3 µM

## O=C(CSc1nnc(CCn2c3ccccc3c3ccccc32)o1)Nc1ccccc1
Alpha-glucosidase [1]
  IC50: 43.26 µM
Alpha-amylase [2]
  IC50: 56.2 µM

## C[C@H]1O[C@H](O[C@H]2[C@H](O)[C@@H](O)[C@@H](O[C@H]3[C@H](O)[C@@H](O)C(O)O[C@@H]3CO)O[C@@H]2CO)[C@H](O)[C@@H](O)[C@@H]1N[C@H]1C=C(CO)[C@@H](O)[C@H](O)[C@H]1O (some centres undefined) [ACARBOSE]
Mus musculus [25]
  Activity: Active
Mus musculus [26]
  Activity: 28.57%

## O=C(CSc1nnc(CCn2c3ccccc3c3ccccc32)o1)Nc1ccc(Cl)cc1Cl
Alpha-glucosidase [1]
  IC50: 92.05 µM
Alpha-amylase [2]
  IC50: 94.3 µM

## O=C(CSc1nnc(CCn2c3ccccc3c3ccccc32)o1)Nc1ccc(Oc2ccccc2)cc1
Alpha-glucosidase [1]
  IC50: 39.52 µM
Alpha-amylase [2]
  IC50: 74.8 µM

## Cc1ccccc1NC(=O)CSc1nnc(CCn2c3ccccc3c3ccccc32)o1
Alpha-glucosidase [1]
  IC50: > 300 µM
Alpha-amylase [2]
  IC50: > 200 µM

## Cc1cccc(NC(=O)CSc2nnc(CCn3c4ccccc4c4ccccc43)o2)c1
Alpha-glucosidase [1]
  IC50: 66.89 µM
Alpha-amylase [2]
  IC50: 81.2 µM

## Cc1ccc(NC(=O)CSc2nnc(CCn3c4ccccc4c4ccccc43)o2)cc1
Alpha-glucosidase [1]
  IC50: 80.64 µM
Alpha-amylase [2]
  IC50: 126 µM

## O=C(CSc1nnc(CCn2c3ccccc3c3ccccc32)o1)Nc1ccc(F)cc1
Alpha-glucosidase [1]
  IC50: 27.73 µM
Alpha-amylase [2]
  IC50: 45.5 µM
Alpha-glucosidase [27]
  Ki: 22.04 µM
[28]
  inhibition: Active
Alpha-amylase [29]
  Ki: 45.1 µM
Alpha-amylase [30]
  Ki: 63.3 µM
[31]
  inhibition: Active
[32]
  inhibition: Active
[23]
  viability at 24 h, 60 µM: 90.3%
[24]
  IC50 at 1 day: 181 µM
Mus musculus [25]
  Activity: Active
Mus musculus [26]
  Activity: 10.66%

## O=C(CSc1nnc(CCn2c3ccccc3c3ccccc32)o1)Nc1ccc(Cl)cc1[N+](=O)[O-]
Alpha-glucosidase [1]
  IC50: 37.96 µM
Alpha-amylase [2]
  IC50: 89.7 µM
